Data as given in article PMC5218480 (PLoS ONE, 2017).

System: MV-4-11 cells
Experiment: Gene expression microarray analysis (Affymetrix PrimeView) and GSEA
Format: cell-based, human
Parameters: RFU PODN (11730768_x_at) / Fold change /veh PODN (11730768_x_at) / RFU LINC00158 (11744669_a_at) / Fold change /veh LINC00158 (11744669_a_at) / RFU DUSP10 (11751237_a_at) / Fold change /veh DUSP10 (11751237_a_at) / RFU ID3 (11757404_x_at) / Fold change /veh ID3 (11757404_x_at) / RFU PLEKHG5 (11737974_s_at) / Fold change /veh PLEKHG5 (11737974_s_at) / RFU LRRC4B (11730491_at) / Fold change /veh LRRC4B (11730491_at) / RFU GIMAP4 (11747438_a_at) / Fold change /veh GIMAP4 (11747438_a_at) / RFU KRT8 (11758183_x_at) / Fold change /veh KRT8 (11758183_x_at) / RFU CNN1 (11734310_a_at) / Fold change /veh CNN1 (11734310_a_at) / RFU VPS37D (11726825_at) / Fold change /veh VPS37D (11726825_at) / RFU C10orf10 (11716522_x_at) / Fold change /veh C10orf10 (11716522_x_at) / RFU KIR2DL2 /// KIR2DL4 /// KIR2DL5A /// KIR2DL5B /// KIR2DS1 /// KIR2DS2 /// KIR2DS3 /// KIR2DS4 /// KIR3DL3 /// KIR3DL3 /// KIR3DS1 (11738374_at) / Fold change /veh KIR2DL2 /// KIR2DL4 /// KIR2DL5A /// KIR2DL5B /// KIR2DS1 /// KIR2DS2 /// KIR2DS3 /// KIR2DS4 /// KIR3DL3 /// KIR3DL3 /// KIR3DS1 (11738374_at) / RFU C1QL1 (11718748_at) / Fold change /veh C1QL1 (11718748_at) / RFU TMPRSS4 (11747572_a_at) / Fold change /veh TMPRSS4 (11747572_a_at) / RFU HAMP (11756126_x_at) / Fold change /veh HAMP (11756126_x_at) / RFU RNFT2 (11725882_a_at) / Fold change /veh RNFT2 (11725882_a_at) / RFU NR4A2 (11747474_a_at) / Fold change /veh NR4A2 (11747474_a_at) / RFU ABCC12 (11746883_a_at) / Fold change /veh ABCC12 (11746883_a_at) / RFU TMEM136 (11760407_x_at) / Fold change /veh TMEM136 (11760407_x_at) / RFU CLDN22 /// WWC2 (11732394_at) / Fold change /veh CLDN22 /// WWC2 (11732394_at) / RFU HLA-DPB1 (11760878_x_at) / Fold change /veh HLA-DPB1 (11760878_x_at) / RFU SPINT1 (11716480_a_at) / Fold change /veh SPINT1 (11716480_a_at) / RFU GAP43 (11754022_s_at) / Fold change /veh GAP43 (11754022_s_at) / RFU A4GNT (11735810_at) / Fold change /veh A4GNT (11735810_at) / RFU PRB3 (11715151_x_at) / Fold change /veh PRB3 (11715151_x_at) / RFU TUBB4B (11761932_at) / Fold change /veh TUBB4B (11761932_at) / RFU CAPN14 (11732068_a_at) / Fold change /veh CAPN14 (11732068_a_at) / RFU TMCC2 (11721928_a_at) / Fold change /veh TMCC2 (11721928_a_at) / RFU IRGQ (11745062_a_at) / Fold change /veh IRGQ (11745062_a_at) / RFU FAM174B (11720279_a_at) / Fold change /veh FAM174B (11720279_a_at) / RFU TMPRSS4 (11748680_a_at) / Fold change /veh TMPRSS4 (11748680_a_at) / RFU FAM212B (11763350_a_at) / Fold change /veh FAM212B (11763350_a_at) / RFU PLEKHG5 (11743358_a_at) / Fold change /veh PLEKHG5 (11743358_a_at) / RFU ZSCAN30 (11745921_a_at) / Fold change /veh ZSCAN30 (11745921_a_at) / RFU CMKLR1 (11741424_a_at) / Fold change /veh CMKLR1 (11741424_a_at) / RFU LOC101060620 /// MAPK8IP1 (11723275_at) / Fold change /veh LOC101060620 /// MAPK8IP1 (11723275_at) / RFU SPTSSB (11747773_x_at) / Fold change /veh SPTSSB (11747773_x_at) / RFU PRSS12 (11739890_at) / Fold change /veh PRSS12 (11739890_at) / RFU BIN1 (11741810_x_at) / Fold change /veh BIN1 (11741810_x_at) / RFU WNT11 (11732464_a_at) / Fold change /veh WNT11 (11732464_a_at) / RFU C10orf10 (11716521_a_at) / Fold change /veh C10orf10 (11716521_a_at) / RFU C5orf56 (11738089_at) / Fold change /veh C5orf56 (11738089_at) / RFU CYB561 (11721691_x_at) / Fold change /veh CYB561 (11721691_x_at) / RFU ANKRD19P (11752326_a_at) / Fold change /veh ANKRD19P (11752326_a_at) / RFU OR2T12 /// OR2T33 /// OR2T8 (11738714_s_at) / Fold change /veh OR2T12 /// OR2T33 /// OR2T8 (11738714_s_at) / RFU VCAN (11748164_a_at) / Fold change /veh VCAN (11748164_a_at) / RFU JSRP1 (11732532_at) / Fold change /veh JSRP1 (11732532_at) / RFU KRTAP10-11 (11738290_x_at) / Fold change /veh KRTAP10-11 (11738290_x_at) / RFU MYO3A (11730013_a_at) / Fold change /veh MYO3A (11730013_a_at) / RFU EBF3 (11725865_a_at) / Fold change /veh EBF3 (11725865_a_at) / RFU CAMK2N1 (11719241_x_at) / Fold change /veh CAMK2N1 (11719241_x_at) / RFU C5orf56 (11738088_a_at) / Fold change /veh C5orf56 (11738088_a_at) / RFU OLFML3 (11715873_a_at) / Fold change /veh OLFML3 (11715873_a_at) / RFU LOC100653217 /// NTM (11731650_a_at) / Fold change /veh LOC100653217 /// NTM (11731650_a_at) / RFU MAPK11 (11762145_a_at) / Fold change /veh MAPK11 (11762145_a_at) / RFU FIZ1 (11724087_x_at) / Fold change /veh FIZ1 (11724087_x_at) / RFU OASL (11726364_x_at) / Fold change /veh OASL (11726364_x_at) / RFU SOX15 (11748057_x_at) / Fold change /veh SOX15 (11748057_x_at) / RFU CD79A (11719716_a_at) / Fold change /veh CD79A (11719716_a_at) / RFU HIST1H1D (11736915_at) / Fold change /veh HIST1H1D (11736915_at) / RFU CASKIN2 (11723855_a_at) / Fold change /veh CASKIN2 (11723855_a_at) / RFU LOC730098 (11760151_x_at) / Fold change /veh LOC730098 (11760151_x_at) / RFU OR4N2 (11742367_at) / Fold change /veh OR4N2 (11742367_at) / RFU PRRT2 (11749266_a_at) / Fold change /veh PRRT2 (11749266_a_at) / RFU SNX32 (11753110_a_at) / Fold change /veh SNX32 (11753110_a_at) / RFU CDHR5 (11726645_a_at) / Fold change /veh CDHR5 (11726645_a_at) / RFU RCAN1 (11760418_a_at) / Fold change /veh RCAN1 (11760418_a_at) / RFU FAM167A (11723789_a_at) / Fold change /veh FAM167A (11723789_a_at) / RFU FAM26E (11764081_at) / Fold change /veh FAM26E (11764081_at) / RFU ISYNA1 (11749810_s_at) / Fold change /veh ISYNA1 (11749810_s_at) / RFU ACY1 (11761880_at) / Fold change /veh ACY1 (11761880_at) / RFU 11764098_at / Fold change /veh 11764098_at / RFU SAMD14 (11745864_x_at) / Fold change /veh SAMD14 (11745864_x_at) / RFU NPB (11741838_a_at) / Fold change /veh NPB (11741838_a_at) / RFU TMPRSS6 (11731388_a_at) / Fold change /veh TMPRSS6 (11731388_a_at) / RFU KRTAP10-2 (11738614_at) / Fold change /veh KRTAP10-2 (11738614_at) / RFU ARHGAP8 /// PRR5-ARHGAP8 (11727945_x_at) / Fold change /veh ARHGAP8 /// PRR5-ARHGAP8 (11727945_x_at) / RFU KRTAP5-7 /// NADSYN1 (11734609_at) / Fold change /veh KRTAP5-7 /// NADSYN1 (11734609_at) / RFU RASL12 (11751679_a_at) / Fold change /veh RASL12 (11751679_a_at) / RFU CDKN2B (11736163_a_at) / Fold change /veh CDKN2B (11736163_a_at) / RFU PRF1 (11729649_at) / Fold change /veh PRF1 (11729649_at) / RFU, ZNF638 /// ZNF638-IT1 / Fold change vs veh, ZNF638 /// ZNF638-IT1 / RFU, PANK3 / Fold change vs veh, PANK3 / RFU, SH3YL1 / Fold change vs veh, SH3YL1 / RFU, ZEB2 / Fold change vs veh, ZEB2 / RFU, NRIP1 / Fold change vs veh, NRIP1 / RFU, PTTG1IP / Fold change vs veh, PTTG1IP / RFU, CAPN2 / Fold change vs veh, CAPN2 / RFU, MED14 / Fold change vs veh, MED14 / RFU, SNORA58 / Fold change vs veh, SNORA58 / RFU, C1orf63 / Fold change vs veh, C1orf63 / RFU, LRRFIP1 / Fold change vs veh, LRRFIP1 / RFU, NDUFAF7 / Fold change vs veh, NDUFAF7 / RFU, SLC12A2 / Fold change vs veh, SLC12A2 / RFU, IBTK / Fold change vs veh, IBTK / RFU, ESF1 / Fold change vs veh, ESF1 / Fold change vs veh, TMEM50B / RFU, TAOK1 / Fold change vs veh, TAOK1 / RFU, ACBD3 / Fold change vs veh, ACBD3 / RFU, TMA16 / Fold change vs veh, TMA16 / RFU, RWDD3 / Fold change vs veh, RWDD3 / RFU, BCAT1 / Fold change vs veh, BCAT1 / RFU, EDEM3 / Fold change vs veh, EDEM3 / RFU, TMEM33 / Fold change vs veh, TMEM33 / RFU, WDR75 / Fold change vs veh, WDR75 / RFU, AHCTF1 / Fold change vs veh, AHCTF1 / RFU, TFRC / Fold change vs veh, TFRC / RFU, ZDHHC17 / Fold change vs veh, ZDHHC17 / RFU, NOM1 / Fold change vs veh, NOM1 / RFU, ARL8B / Fold change vs veh, ARL8B / RFU, ZBTB11 / Fold change vs veh, ZBTB11 / RFU, TAMM41 / Fold change vs veh, TAMM41 / RFU, KIAA1704 /// LOC100996395 / Fold change vs veh, KIAA1704 /// LOC100996395 / RFU, ING1 / Fold change vs veh, ING1 / RFU, TRMT61B / Fold change vs veh, TRMT61B / RFU, FUBP3 / Fold change vs veh, FUBP3 / RFU, TP53 / Fold change vs veh, TP53 / RFU, TNKS2 / Fold change vs veh, TNKS2 / RFU, ZFP14 / Fold change vs veh, ZFP14 / RFU, ACTR2 / Fold change vs veh, ACTR2 / RFU, PPP3R1 / Fold change vs veh, PPP3R1 / RFU, PIK3R1 / Fold change vs veh, PIK3R1 / RFU, HNRNPA1 / Fold change vs veh, HNRNPA1 / RFU, RNF170 / Fold change vs veh, RNF170 / RFU, ZNF28 / Fold change vs veh, ZNF28 / RFU, RNGTT / Fold change vs veh, RNGTT / RFU, OGT / Fold change vs veh, OGT / RFU, BRD1 / Fold change vs veh, BRD1 / RFU, MARS / Fold change vs veh, MARS / RFU, ZNF655 / Fold change vs veh, ZNF655 / RFU, FAHD1 / Fold change vs veh, FAHD1 / RFU, BDP1 / Fold change vs veh, BDP1 / RFU, LRRCC1 / Fold change vs veh, LRRCC1 / RFU, ARID1A / Fold change vs veh, ARID1A / RFU, ZNF146 / Fold change vs veh, ZNF146 / RFU, ZNF330 / Fold change vs veh, ZNF330 / RFU, GPN3 / Fold change vs veh, GPN3 / RFU, C9orf123 / Fold change vs veh, C9orf123 / RFU, N4BP2L2 / Fold change vs veh, N4BP2L2 / RFU, ARFIP1 / Fold change vs veh, ARFIP1 / RFU, FAM179B / Fold change vs veh, FAM179B / RFU, BCL10 / Fold change vs veh, BCL10 / RFU, UHRF1BP1L / Fold change vs veh, UHRF1BP1L / RFU, BET1 / Fold change vs veh, BET1 / RFU, CNOT2 / Fold change vs veh, CNOT2 / RFU, ZNF268 / Fold change vs veh, ZNF268 / Fold change vs veh, ZNF507 / RFU, DGCR2 / Fold change vs veh, DGCR2 / RFU, WDSUB1 / Fold change vs veh, WDSUB1 / Fold change vs veh, HSP90B1 /// MIR3652 / RFU, ADSS / Fold change vs veh, ADSS / RFU, GK / Fold change vs veh, GK / RFU, ZNF148 / Fold change vs veh, ZNF148 / RFU, TAF9 / Fold change vs veh, TAF9 / RFU, SLC1A5 / Fold change vs veh, SLC1A5 / RFU, SLMO2 / Fold change vs veh, SLMO2 / RFU, ABCC4 / Fold change vs veh, ABCC4 / RFU, LOC101060439 /// RAP1B / Fold change vs veh, LOC101060439 /// RAP1B / RFU, RFX7 / Fold change vs veh, RFX7 / RFU, GTPBP10 / Fold change vs veh, GTPBP10 / RFU, CNEP1R1 / Fold change vs veh, CNEP1R1 / RFU, BIVM-ERCC5 /// ERCC5 / Fold change vs veh, BIVM-ERCC5 /// ERCC5 / RFU, ILF3 / Fold change vs veh, ILF3 / RFU 11762660_at / Fold change /veh 11762660_at / RFU VCAN (11757783_s_at) / Fold change /veh VCAN (11757783_s_at) / RFU DDX43 (11728927_at) / Fold change /veh DDX43 (11728927_at) / RFU KRT8 (11758188_x_at) / Fold change /veh KRT8 (11758188_x_at) / RFU NKD1 (11759106_at) / Fold change /veh NKD1 (11759106_at) / RFU SRD5A1 (11742802_a_at) / Fold change /veh SRD5A1 (11742802_a_at) / RFU TPSAB1 /// TPSB2 (11721975_s_at) / Fold change /veh TPSAB1 /// TPSB2 (11721975_s_at) / RFU GSTM3 (11746129_a_at) / Fold change /veh GSTM3 (11746129_a_at) / RFU IL23R (11737362_x_at) / Fold change /veh IL23R (11737362_x_at) / RFU TMEM51 (11727254_a_at) / Fold change /veh TMEM51 (11727254_a_at) / RFU PIWIL2 (11732686_x_at) / Fold change /veh PIWIL2 (11732686_x_at) / RFU ORM1 (11744905_x_at) / Fold change /veh ORM1 (11744905_x_at) / RFU CCDC152 (11743942_at) / Fold change /veh CCDC152 (11743942_at) / RFU ECM1 (11717891_a_at) / Fold change /veh ECM1 (11717891_a_at) / RFU IL23R (11748794_a_at) / Fold change /veh IL23R (11748794_a_at) / RFU TNFAIP8L3 (11732012_x_at) / Fold change /veh TNFAIP8L3 (11732012_x_at) / RFU MBOAT4 (11741988_at) / Fold change /veh MBOAT4 (11741988_at) / RFU 11764193_at / Fold change /veh 11764193_at / RFU TMEM53 (11763286_at) / Fold change /veh TMEM53 (11763286_at) / RFU MAGEB2 (11727129_at) / Fold change /veh MAGEB2 (11727129_at) / RFU TMEM200A (11744735_a_at) / Fold change /veh TMEM200A (11744735_a_at) / RFU CCDC152 (11751479_a_at) / Fold change /veh CCDC152 (11751479_a_at) / RFU FAM211A (11726209_a_at) / Fold change /veh FAM211A (11726209_a_at) / RFU RGS16 (11746705_a_at) / Fold change /veh RGS16 (11746705_a_at) / RFU VCAN (11755009_s_at) / Fold change /veh VCAN (11755009_s_at) / RFU RHOB (11743442_s_at) / Fold change /veh RHOB (11743442_s_at) / RFU RGS16 (11720943_a_at) / Fold change /veh RGS16 (11720943_a_at) / RFU RGS16 (11720944_at) / Fold change /veh RGS16 (11720944_at) / RFU, VPS4B / Fold change vs veh, VPS4B / RFU, CREB1 / Fold change vs veh, CREB1 / RFU, DNAJC13 / Fold change vs veh, DNAJC13 / RFU, GNAQ / Fold change vs veh, GNAQ / RFU, CDK5R1 / Fold change vs veh, CDK5R1 / RFU, ZRANB3 / Fold change vs veh, ZRANB3 / RFU, CUL4A / Fold change vs veh, CUL4A / RFU, CCNY / Fold change vs veh, CCNY / RFU, UFL1 / Fold change vs veh, UFL1 / RFU, COG3 / Fold change vs veh, COG3 / RFU, DIAPH2 / Fold change vs veh, DIAPH2 / RFU, SKA2 / Fold change vs veh, SKA2 / RFU, AFF3 / Fold change vs veh, AFF3 / RFU, LMF1 / Fold change vs veh, LMF1 / RFU, IPO11 / Fold change vs veh, IPO11 / RFU, DFFB / Fold change vs veh, DFFB / RFU, FOXP1 / Fold change vs veh, FOXP1 / RFU, CARD8 / Fold change vs veh, CARD8 / RFU, STRN3 / Fold change vs veh, STRN3 / RFU, ADK / Fold change vs veh, ADK / RFU, RASSF2 / Fold change vs veh, RASSF2 / RFU, WIPF1 / Fold change vs veh, WIPF1 / RFU, LARP1B / Fold change vs veh, LARP1B / RFU, RASA1 / Fold change vs veh, RASA1 / RFU, RB1 / Fold change vs veh, RB1 / RFU, PPFIA1 / Fold change vs veh, PPFIA1 / RFU, MAT2A / Fold change vs veh, MAT2A / RFU, CCT5 / Fold change vs veh, CCT5 / RFU, WDR92 / Fold change vs veh, WDR92 / RFU, CUX1 / Fold change vs veh, CUX1 / RFU, TTC7A / Fold change vs veh, TTC7A / RFU, TMEM135 / Fold change vs veh, TMEM135 / RFU, DEPTOR / Fold change vs veh, DEPTOR / RFU, CPM / Fold change vs veh, CPM / RFU, DNAJB6 / Fold change vs veh, DNAJB6 / RFU, CACNA2D3 / Fold change vs veh, CACNA2D3 / RFU, DTX4 / Fold change vs veh, DTX4 / RFU, TFCP2 / Fold change vs veh, TFCP2 / RFU, GMCL1 /// GMCL1P1 / Fold change vs veh, GMCL1 /// GMCL1P1 / RFU, AEBP2 / Fold change vs veh, AEBP2 / RFU, SNHG1 /// SNORD22 /// SNORD25 /// SNORD26 /// SNORD27 /// SNORD28 /// SNORD29 /// SNORD31 / Fold change vs veh, SNHG1 /// SNORD22 /// SNORD25 /// SNORD26 /// SNORD27 /// SNORD28 /// SNORD29 /// SNORD31 / Fold change (Aza/veh), C12orf56 (ProbeSet 11735607_a_at) / Fold change (ACY-1035/veh), C12orf56 (ProbeSet 11735607_a_at) / Fold change (Aza/veh), FGFR1OP (ProbeSet 11751329_s_at) / Fold change (ACY-1035/veh), FGFR1OP (ProbeSet 11751329_s_at) / Fold change (Aza/veh), VPS36 (ProbeSet 11739960_a_at) / Fold change (ACY-1035/veh), VPS36 (ProbeSet 11739960_a_at) / RFU SYPL1 (11715823_x_at) / Fold change /veh SYPL1 (11715823_x_at) / RFU IGFBP7 (11715501_s_at) / Fold change /veh IGFBP7 (11715501_s_at) / RFU REEP3 (11722064_at) / Fold change /veh REEP3 (11722064_at) / RFU IGLL1 (11728026_x_at) / Fold change /veh IGLL1 (11728026_x_at): dose or concentration left out as unconfirmed
Conditions: MV-4-11 cells, 48 hours

## Nc1ccc(-c2cccs2)cc1NC(=O)c1ccc2c(c1)cc(C1CC1)n2CCN1CCOCC1 [ACY-1035]
  RFU RGS16 (11720943_a_at): 70.47 RFU
